Laboratory results reported in patent US12565501B2, “Muscarinic acetylcholine M1 receptor antagonists” (Contineum Therapeutics, Inc., priority 2019, dated 2026).
Structures can show the parent of a compound that is named as a salt.

These molecules were tested against T1, human M1 receptor (Homo sapiens, UniProt P11229) (assay: In vitro functional assay of muscarinic acetylcholine receptor activity (aequorin calcium flux, reversal of EC80 acetylcholine response)). Settings: CHO-K1 cells stably expressing human M1 receptor with aequorin; acetylcholine at EC80; calcium flux (luminescence); read-out: M1 IC50.
T1 sequence (P11229 1-460): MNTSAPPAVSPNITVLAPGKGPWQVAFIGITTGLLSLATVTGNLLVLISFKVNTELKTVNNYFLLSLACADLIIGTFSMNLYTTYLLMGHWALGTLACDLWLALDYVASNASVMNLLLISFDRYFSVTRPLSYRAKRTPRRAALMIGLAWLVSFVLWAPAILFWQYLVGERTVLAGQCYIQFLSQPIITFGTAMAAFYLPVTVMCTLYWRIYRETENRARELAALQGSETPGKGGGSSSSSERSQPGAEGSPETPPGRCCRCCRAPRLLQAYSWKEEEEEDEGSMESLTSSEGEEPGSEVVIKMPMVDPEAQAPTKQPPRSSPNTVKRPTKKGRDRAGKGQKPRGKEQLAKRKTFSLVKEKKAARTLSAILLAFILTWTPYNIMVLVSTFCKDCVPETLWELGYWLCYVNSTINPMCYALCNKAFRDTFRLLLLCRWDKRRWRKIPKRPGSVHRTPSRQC
Format: cell-based
Procedure: CHO-K1 cells stably expressing human M1 receptor with aequorin (Perkin Elmer) were grown in F12 media (Gibco) containing 10% FBS (ATCC), 0.4 mg/mL geneticin (Sigma-Aldrich) and 0.25 mg/mL Zeocin (Invitrogen). Cells were grown as per the manufacturer's protocol. For compound testing, cells were grown to confluency and detached gently with Accutase (Sigma-Aldrich) followed by centrifugation for 5 min at 150× g. Cells were then re-suspended in assay buffer (i.e. DMEM/F-12 HEPES without phenol red (Invitrogen) with 0.1% BSA (Sigma-Aldrich)) at a density of 5×10^6 cells/ml. Under sterile conditions, 5 μM coelenterazine (Invitrogen) was added to the cells, mixed, then incubated at room temperature protected from light, with gentle agitation, for 4 h.
Primary compound plates were prepared in 100% DMSO in opaque 96-well plates (VWR) and serially diluted in half log increments. Secondary compound plates were prepared at 3× concentration in assay buffer. Compounds were added to white, clear bottom tissue culture treated 96-well plates (Fisher Scientific). Coelenterazine-loaded cells were then added at 5×10^5 cells/well.
Compounds and cells were incubated at room temperature for 30 min in the dark. Acetylcholine at the EC80 concentration was added and calcium flux measured using a FlexStation 3 (Molecular Devices). Sigmoidal dose-response curves were generated by measuring luminescence over 40 sec and calculating the area under the curve. Dose response curves and IC50 values were generated using Prism (GraphPad). Compounds were tested at a final concentration range of 100 μM to […] in 0.1% DMSO.

Row | Structure (SMILES) | IC50 [nM]
1 | N#Cc1ccc(N2[C@@H]3CC[C@H]2CN(C(=O)CCNC2(c4ccc(Cl)c(Cl)c4)CC2)C3)nc1 [Example 10, 6-(3-(3-((1-(3,4-dichlorophenyl)cyclopropyl)amino)propanoyl)-3,8-diazabicyclo[3.2.1]octan-8-yl)nicotinonitrile] | < 10
2 | CC(c1ccc(F)cc1)S(=O)(=O)CCC(=O)N1CC2CCC(C1)N2c1ccc(C#N)cn1 (racemic) [Example 175, 6-(3-(3-((1-(4-fluorophenyl)ethyl)sulfonyl)propanoyl)-3,8-diazabicyclo[3.2.1]octan-8-yl) nicotinonitrile] | > 1000
3 | CC(NCCC(=O)N1C[C@H]2CC[C@@H](C1)N2c1ccc(C#N)cn1)c1cccc2ncsc12 (mixture of isomers) [Example 51, 6-(3-(3-((1-(benzo[d]thiazol-7-yl)ethyl)amino)propanoyl)-3,8-diazabicyclo[3.2.1]octan-8-yl)nicotinonitrile] | 10 to 100
4 | COc1ccc(F)c([C@H](C)NCC(=O)N2CC3CCC(C2)N3c2ccc(C#N)cn2)c1 [Example 67, 6-(3-(((S)-1-(2-fluoro-5-methoxyphenyl)ethyl)glycyl)-3,8-diazabicyclo[3.2.1]octan-8-yl)nicotinonitrile] | < 10
5 | COc1cc(C(F)(F)CCC(=O)N2C[C@@H]3C[C@H]2CN3c2ccc(C#N)cn2)ccn1 [Example 154, 6-((1S,4S)-5-(4,4-difluoro-4-(2-methoxypyridin-4-yl)butanoyl)-2,5-diazabicyclo[2.2.1]heptan-2-yl)nicotinonitrile] | 1000 to 10000
6 | C[C@H](NCCC(=O)N1C[C@H]2CC[C@@H](C1)N2c1ccc(C#N)cn1)c1ccc(F)cc1F [Example 9, 6-(3-(3-(((S)-1-(2,4-difluorophenyl)ethyl)amino)propanoyl)-3,8-diazabicyclo[3.2.1]octan-8-yl)nicotinonitrile] | 100 to 1000
7 | N#Cc1ccc(N2[C@@H]3CC[C@H]2CN(C(=O)CCNC2(c4ncccc4F)CC2)C3)nc1 [Example 20, 6-(3-(3-((1-(3-fluoropyridin-2-yl)cyclopropyl)amino)propanoyl)-3,8-diazabicyclo[3.2.1]octan-8-yl)nicotinonitrile] | 1000 to 10000
8 | COc1cccc(C2(OCC(=O)N3CC4CCC(C3)N4c3ccc(C#N)cn3)CCC2)n1 [Example 253, 6-(3-(2-(1-(6-methoxypyridin-2-yl)cyclobutoxy)acetyl)-3,8-diazabicyclo[3.2.1]octan-8-yl)nicotinonitrile] | < 10
9 | COc1cncc(C(OCC(=O)N2CC3CCC(C2)N3c2ccc(C#N)cn2)C(F)F)c1 (racemic) [Example 202, 6-(3-(2-(2,2-difluoro-1-(5-methoxypyridin-3-yl)ethoxy)acetyl)-3,8-diazabicyclo[3.2.1]octan-8-yl)nicotinonitrile] | < 10
10 | CCOc1cncc(C2(OCC(=O)N3CC4CCC(C3)N4c3ccc(C#N)cn3)CCC2)c1 [Example 259, 6-(3-(2-(1-(5-ethoxypyridin-3-yl)cyclobutoxy)acetyl)-3,8-diazabicyclo[3.2.1]octan-8-yl)nicotinonitrile] | 10 to 100
11 | COc1cc(C2(NCC(=O)N3CC4CCC(C3)N4c3ccc(C#N)cn3)CC2)c(F)cc1F [Example 113, 6-(3-((1-(2,4-difluoro-5-methoxyphenyl)cyclopropyl)glycyl)-3,8-diazabicyclo[3.2.1]octan-8-yl)nicotinonitrile] | < 10
12 | COc1cnc2cccc(C(C)NCCC(=O)N3C[C@H]4CC[C@@H](C3)N4c3ccc(C#N)cn3)c2c1 (mixture of isomers) [Example 50, 6-(3-(3-((1-(3-methoxyquinolin-5-yl)ethyl)amino)propanoyl)-3,8-diazabicyclo[3.2.1]octan-8-yl)nicotinonitrile] | < 10
13 | COc1cc(F)cc(C2(NCC(=O)N3CC4CCC(C3)N4c3ccc(C#N)cn3)CC2)c1 [Example 110, 6-(3-((1-(3-fluoro-5-methoxyphenyl)cyclopropyl)glycyl)-3,8-diazabicyclo[3.2.1]octan-8-yl)nicotinonitrile] | < 10
14 | CC(C)(OCC(=O)N1CC2CCC(C1)N2c1ccc(C#N)cn1)c1cccc2ncnn12 (racemic) [Example 203, 6-(3-(2-((2-([1,2,4]triazolo[1,5-a]pyridin-5-yl)propan-2-yl)oxy)acetyl)-3,8-diazabicyclo[3.2.1]octan-8-yl)nicotinonitrile] | 100 to 1000
15 | N#Cc1ccc(N2C3CCC2CN(C(=O)COC2(c4ccc(Cl)c(Cl)c4)CC2)C3)nc1 [Example 214, 6-(3-(2-(1-(3,4-dichlorophenyl)cyclopropoxy)acetyl)-3,8-diazabicyclo[3.2.1]octan-8-yl)nicotinonitrile] | 10 to 100
16 | CCC(OCC(=O)N1CC2CCC(C1)N2c1ccc(C#N)cn1)c1ccc(F)c(Br)c1 (racemic) [Example 216, 6-(3-(2-(1-(3-bromo-4-fluorophenyl)propoxy)acetyl)-3,8-diazabicyclo[3.2.1]octan-8-yl)nicotinonitrile] | < 10
17 | N#Cc1ccc(N2C3CCC2CN(C(=O)COC2(c4ccccc4)CC2)C3)nc1 [Example 180, 6-(3-(2-(1-phenylcyclopropoxy)acetyl)-3,8-diazabicyclo[3.2.1]octan-8-yl)nicotinonitrile] | 10 to 100
18 | N#Cc1ccc(N2C3CCC2CN(C(=O)COC2(c4cccc(F)c4F)CC2)C3)nc1 [Example 211, 6-(3-(2-(1-(2,3-difluorophenyl)cyclopropoxy)acetyl)-3,8-diazabicyclo[3.2.1]octan-8-yl)nicotinonitrile] | 10 to 100
19 | N#Cc1ccc(N2C3CCC2CN(C(=O)CCNC(CO)c2ccc(F)cc2)C3)nc1 [Example 130, 6-((3-(3-(((R)-1-(4-fluorophenyl)-2-hydroxyethyl)amino)propanoyl)-3,8-diazabicyclo[3.2.1]octan-8-yl)nicotinonitrile] | > 1000
20 | CC(SCCC(=O)N1CC2CCC(C1)N2c1ccc(C#N)cn1)c1ccccc1Br (racemic) [Example 136, 6-((3-((1-(2-bromophenyl)ethyl)thio)propanoyl)-3,8-diazabicyclo[3.2.1]octan-8-yl)nicotinonitrile] | 100 to 1000
21 | N#Cc1ccc(N2C3CCC2CN(C(=O)CNC2CCc4cc(F)cc(F)c42)C3)nc1 (racemic) [Example 91, 6-(3-((5,7-difluoro-2,3-dihydro-1H-inden-1 yl)glycyl)-3,8-diazabicyclo[3.2.1]octan-8-yl)nicotinonitrile] | 100 to 1000
22 | N#Cc1ccc(N2C3CCC2CN(C(=O)CCOC(c2cccc4ncnn24)C2CC2)C3)nc1 (racemic) [Example 309, 6-(3-(3-([1,2,4]triazolo[1,5-a]pyridin-5-yl(cyclopropyl)methoxy)propanoyl)-3,8-diazabicyclo[3.2.1]octan-8-yl)nicotinonitrile] | < 10
23 | N#Cc1ccc(N2C3CCC2CN(C(=O)C2CC(O)(c4cccc5ncccc45)C2)C3)nc1 (stereo not shown) [Example 152, 6-(3-(3-hydroxy-3-(quinolin-5-yl)cyclobutane-1-carbonyl)-3,8-diazabicyclo[3.2.1]octan-8-yl)nicotinonitrile] | 1000 to 10000
24 | N#Cc1ccc(N2C3CCC2CN(C(=O)COC2(c4cccc(Br)c4)CC2)C3)nc1 [Example 209, 6-(3-(2-(1-(3-bromophenyl)cyclopropoxy)acetyl)-3,8-diazabicyclo[3.2.1]octan-8-yl)nicotinonitrile] | 100 to 1000
25 | N#Cc1ccc(N2[C@@H]3CC[C@H]2CN(C(=O)CCNC2(c4cccnc4)CC2)C3)nc1 [Example 19, 6-(3-(3-((1-(pyridin-3-yl)cyclopropyl)amino)propanoyl)-3,8-diazabicyclo[3.2.1]octan-8-yl)nicotinonitrile] | 100 to 1000
26 | COc1cncc(C(NCC(=O)N2CC3CCC(C2)N3c2ccc(C#N)cn2)C(F)F)c1 (racemic) [Example 127, 6-(3-((2,2-difluoro-1-(5-methoxypyridin-3-yl)ethyl)glycyl)-3,8-diazabicyclo[3.2.1]octan-8-yl)nicotinonitrile] | < 10
27 | N#Cc1ccc(N2C3CCC2CN(C(=O)COC2(c4c(F)cncc4F)CCC2)C3)nc1 [Example 316, 6-(3-(2-(1-(3,5-difluoropyridin-4-yl)cyclobutoxy)acetyl)-3,8-diazabicyclo[3.2.1]octan-8-yl)nicotinonitrile] | < 10

Same assay, conditions: M1 IC50, CHO-K1 cells stably expressing human M1 receptor with aequorin; acetylcholine at EC80; calcium flux (luminescence)

Row | Structure (SMILES) | IC50 [nM]
28 | N#Cc1ccc(N2C3CCC2CN(C(=O)CCNC2(c4ccc(F)c(C#N)c4)CC2)C3)nc1 [Example 288, 6-(3-(3-((1-(3-cyano-4-fluorophenyl)cyclopropyl)amino)propanoyl)-3,8-diazabicyclo[3.2.1]octan-8-yl)nicotinonitrile formic acid Salt] | 10 to 100
